According to patent US7342029B2, “Substituted indoles” (Sanofi-Aventis Deutschland GmbH, priority 1999, dated 2008):

Columns and labels:
IκB kinase = biological target: T1, IκB kinase (Homo sapiens, UniProt O14920+O15111); assay: IκB kinase ELISA; type: biochemical; conditions: kinase complex from HeLa S3 cell extract S100, activated with MEKK1Δ
T1 construct: endogenous in cells; host or cells: HeLa S3 cell extract S100 (ammonium sulfate cut, Superose-6 fractions at 670 kDa)
Method: The activity of the IκB kinase was determined using an ELISA comprising a biotinilated substrate peptide containing the amino acid sequence in the protein IκB of serines 32 to 36 and a specific poly- or monoclonal antibody (for example from New England Biolabs, Beverly, Mass., USA, cat.: 9240), which binds only to the phosphorylated form of the peptide IκB. This complex was immobilized on an antibody-binding plate (coated with protein A) and detected using a conjugate of a biotin-binding protein and HRP (for example streptavidine HRP). The activity could be quantified using a standard curve with substrate phosphopeptide.
To obtain the kinase complex, 10 ml of HeLa S3 cell extract S100 were diluted with 40 ml 50 mM HEPES, pH 7.5, adjusted to 40% ammonium sulfate and incubated on ice for 30 minutes. The precipitated pellet was dissolved in 5 ml SEC buffer (50 mM HEPES, pH 7.5, 1 mM DTT, 0.5 mM EDTA, 10 mM 2-glycerophosphate), centrifuged at 20,000×g for 15 minutes and filtered through a 0.22 μm filter. The sample was applied to a 320 ml Superose-6 FPLC column (Amersham Pharmacia Biotech AB, Uppsala, Sweden) which had been equilibrated with SEC buffer and was operated at a flow rate of 2 ml/min at 4° C. The fractions which corresponded to the elution time of the 670 kDa molecular weight standard were combined for activation. Activation was achieved by a 45-minute-incubation with 100 nM MEKK1Δ, 250 μM MgATP, 10 mM MgCl2, 5 mM dithiothreitol (DTT), 10 mM 2-glycerophosphate, 2.5 μM microcystin LR at 37° C. The activated enzyme was stored at −80° C.
The test substances, dissolved in DMSO (2 μl), were preincubated at 25° C. with 43 μl of activated enzyme (diluted 1:25 in reaction buffer 50 mM HEPES, pH 7.5, 10 mM MgCl2, 5 mM DTT, 10 mM β-glycerophosphate, 2.5 μM microcystin LR) for 30 minutes. 5 μl of substrate peptide (biotin-(CH2)6-DRHDSGLDSMKD-CONH2) (200 μM) were added, the mixture was incubated for one hour and the reaction was quenched using 150 μl of 50 mM HEPES, pH 7.5, 0.1% BSA, 50 mM EDTA, antibody [1:200]. 100 μl of the quenched reaction mixture or a standard phosphopeptide dilution series (biotin-(CH2)6-DRHDS[PO3]GLDSMKD-CONH2) were then transferred to a protein A plate (Pierce Chemical Co., Rockford, Ill., USA) and incubated with shaking for 2 hours.
After 3 washing steps with PBS, 100 μl of 0.5 μg/ml of streptavidin HRP (horseradish peroxidase) (diluted in 50mM HEPES/0.1% BSA) were added for 30 minutes. After 5 washing steps with PBS, 100 μl of TMB substrate (Kirkegaard & Perry Laboratories, Gaithersburg, Md., USA) were added and the development of color was stopped by addition of 100 μl of 0.18 M sulfuric acid. Absorption was measured at 450 nm. The standard curve was generated by […] according to a 4-parameter dose-activity relation. Using this standard curve, the enzyme activity or their inhibition by test substances was quantified.
Each substance was tested in duplicate. The mean of the blank (without enzyme) was subtracted from the means (enzyme with and without substances), and the inhibition in % was calculated. IC50 calculations were carried out using the software package GraFit 3.0.

[1] = biological target: T2, cAMP-dependent protein kinase (PKA) (Homo sapiens, UniProt P17612); assay: PKA kinase inhibition (Upstate test kit); type: biochemical; conditions: substance concentration 100 μM; ATP 50 μM
T2 construct: purchased Upstate Biotechnologie
Method: (§1) cAMP-dependent protein kinase (PKA), protein kinase C (PKC) and casein kinase II (CK II) were determined using the corresponding test kits of Upstate Biotechnologie according to the instructions of the manufacturer at an ATP concentration of 50 μM. However, instead of phosphocellulose filters, multi-screen plates (Millipore; Phosphocellulose MS-PH, cat. MAPHNOB10) with the corresponding aspiration system were used. The plates were then measured in a Wallac MicroBeta scintillation counter. In each case, 100 μM of test substance were used. Each substance was tested in duplicate. The mean of the blank (without enzyme) was subtracted from the means (enzyme with and without substances), and the inhibition in % was calculated. IC50 calculations were carried out using the software package GraFit 3.0.

protein kinase C (PKC) = assay: PKC kinase inhibition (Upstate test kit); type: biochemical; conditions: substance concentration 100 μM; ATP 50 μM
Method: as §1

casein kinase II (CK II) = biological target: T3, casein kinase II (CK II) (Homo sapiens, UniProt P68400); assay: CK II kinase inhibition (Upstate test kit); type: biochemical; conditions: substance concentration 100 μM; ATP 50 μM
T3 construct: purchased Upstate Biotechnologie
Method: as §1

T1 sequence (O14920 whole entry): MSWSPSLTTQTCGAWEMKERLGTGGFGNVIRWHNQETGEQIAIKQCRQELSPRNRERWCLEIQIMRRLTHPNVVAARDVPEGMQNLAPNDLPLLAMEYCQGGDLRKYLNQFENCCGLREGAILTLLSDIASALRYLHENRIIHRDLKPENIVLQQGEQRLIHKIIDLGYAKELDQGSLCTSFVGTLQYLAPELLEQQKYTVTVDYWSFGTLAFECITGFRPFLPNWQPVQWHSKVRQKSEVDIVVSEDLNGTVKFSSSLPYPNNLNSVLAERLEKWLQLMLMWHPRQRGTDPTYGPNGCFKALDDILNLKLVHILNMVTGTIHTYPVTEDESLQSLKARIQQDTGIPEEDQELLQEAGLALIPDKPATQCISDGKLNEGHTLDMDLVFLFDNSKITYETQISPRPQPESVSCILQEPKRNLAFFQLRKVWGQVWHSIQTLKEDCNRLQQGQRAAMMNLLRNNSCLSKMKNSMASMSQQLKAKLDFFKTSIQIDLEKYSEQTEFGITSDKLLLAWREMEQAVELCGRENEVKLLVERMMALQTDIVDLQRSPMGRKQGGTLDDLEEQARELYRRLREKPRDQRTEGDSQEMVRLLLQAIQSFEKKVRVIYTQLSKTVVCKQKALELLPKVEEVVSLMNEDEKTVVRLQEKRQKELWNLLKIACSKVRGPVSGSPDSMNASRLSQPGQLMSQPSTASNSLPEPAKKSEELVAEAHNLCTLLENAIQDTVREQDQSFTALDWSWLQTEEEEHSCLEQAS
T1 sequence (O15111 whole entry): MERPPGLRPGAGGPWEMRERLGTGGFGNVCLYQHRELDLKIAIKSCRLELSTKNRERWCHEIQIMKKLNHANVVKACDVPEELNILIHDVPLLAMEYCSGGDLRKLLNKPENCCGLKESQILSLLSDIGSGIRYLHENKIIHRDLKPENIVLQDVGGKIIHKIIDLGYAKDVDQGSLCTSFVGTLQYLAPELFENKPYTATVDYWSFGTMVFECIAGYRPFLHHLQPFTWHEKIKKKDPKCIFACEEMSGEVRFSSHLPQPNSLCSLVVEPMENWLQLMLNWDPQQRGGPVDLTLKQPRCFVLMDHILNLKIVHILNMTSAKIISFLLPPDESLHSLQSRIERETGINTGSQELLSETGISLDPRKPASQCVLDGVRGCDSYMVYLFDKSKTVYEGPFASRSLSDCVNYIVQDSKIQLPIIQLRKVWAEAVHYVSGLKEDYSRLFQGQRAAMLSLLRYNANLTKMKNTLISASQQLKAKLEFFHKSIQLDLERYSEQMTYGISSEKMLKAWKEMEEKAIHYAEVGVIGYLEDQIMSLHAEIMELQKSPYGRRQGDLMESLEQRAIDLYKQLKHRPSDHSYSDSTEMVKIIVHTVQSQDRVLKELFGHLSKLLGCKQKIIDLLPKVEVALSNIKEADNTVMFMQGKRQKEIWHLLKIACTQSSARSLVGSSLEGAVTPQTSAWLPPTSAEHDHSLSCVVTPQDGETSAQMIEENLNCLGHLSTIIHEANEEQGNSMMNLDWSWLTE
T1 sequence (Q9Y6K9 whole entry partner): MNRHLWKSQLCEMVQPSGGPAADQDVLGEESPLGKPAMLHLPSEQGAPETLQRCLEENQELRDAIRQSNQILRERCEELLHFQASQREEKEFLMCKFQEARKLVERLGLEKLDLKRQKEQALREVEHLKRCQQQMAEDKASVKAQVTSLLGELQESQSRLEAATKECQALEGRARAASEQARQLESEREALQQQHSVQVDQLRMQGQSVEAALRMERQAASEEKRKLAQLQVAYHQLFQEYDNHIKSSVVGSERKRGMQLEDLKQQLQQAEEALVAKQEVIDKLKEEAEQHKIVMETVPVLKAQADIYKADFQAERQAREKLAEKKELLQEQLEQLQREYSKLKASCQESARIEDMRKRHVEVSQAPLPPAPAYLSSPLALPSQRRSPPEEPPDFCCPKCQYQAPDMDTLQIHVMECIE
T3 sequence (P68400 whole entry): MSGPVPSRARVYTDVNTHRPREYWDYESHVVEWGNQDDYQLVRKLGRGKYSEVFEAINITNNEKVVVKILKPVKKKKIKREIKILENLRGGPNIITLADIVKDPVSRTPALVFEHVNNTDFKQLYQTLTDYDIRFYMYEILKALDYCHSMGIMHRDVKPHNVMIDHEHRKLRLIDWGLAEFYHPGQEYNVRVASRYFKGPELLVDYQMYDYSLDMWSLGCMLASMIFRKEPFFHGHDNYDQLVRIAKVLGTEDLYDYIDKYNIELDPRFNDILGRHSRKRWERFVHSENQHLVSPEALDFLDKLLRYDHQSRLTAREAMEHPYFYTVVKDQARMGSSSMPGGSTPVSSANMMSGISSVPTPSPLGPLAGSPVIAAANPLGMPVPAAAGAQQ

SMILES	IC50 (IκB kinase) [µM]	inhibition at 100 µM [1] [%]	PKC % inhibition (protein kinase C (PKC)) [%]	inhibition at 100 µM (casein kinase II (CK II)) [%]	melting point [°C]
CCN(C[C@H](NC(=O)c1ccc2[nH]c(-c3ccncc3)cc2c1)C(N)=O)c1ccccc1 [Example 9]	1	0	23	0	
Cc1c(-c2ccncc2)[nH]c2ccc(C(=O)N[C@@H](CCn3cccc3)C(N)=O)cc12 [Example 7, N-(1-Carbamoyl-3-pyrrol-1-ylpropyl)-3-methyl-2-pyridin-4-yl-1H-indole-5-carboxamide]	3			18	
O=C(N[C@@H](CSc1ccccc1)C(=O)O)c1ccc2[nH]c(-c3ccncc3)cc2c1 [Example 4]	0.5	42	33	47	

Further compounds by falling IC50 (IκB kinase), results first:

IC50 (IκB kinase) [µM]	inhibition at 100 µM [1] [%]	PKC % inhibition (protein kinase C (PKC)) [%]	inhibition at 100 µM (casein kinase II (CK II)) [%]	melting point [°C]	SMILES
32				120 to 125	NC(=O)[C@H](CCc1ccccc1)NC(=O)c1ccc2[nH]c(-c3ccccc3)c(-c3ccccc3)c2c1 [Example 1, N-(1-Carbamoyl-3-phenylpropyl)-2,3-diphenyl-1H-indole-5-carboxamide]
4.9	60	58	39		Cc1c(-c2ccncc2)[nH]c2ccc(C(=O)N[C@@H](CSc3ccccc3)C(N)=O)cc12 [Example 6]
1.8	55	8	27		Cc1c(-c2ccncc2)[nH]c2ccc(C(=O)N[C@@H](CSc3ccccc3)C(=O)O)cc12 [Example 5]
0.61	24	15	35		NC(=O)[C@H](CCc1ccccc1)NC(=O)c1ccc2[nH]c(-c3ccncc3)cc2c1 [Example 2]
0.55	35	39	37		NC(=O)[C@H](CSc1ccccc1)NC(=O)c1ccc2[nH]c(-c3ccncc3)cc2c1 (stereo in doubt) [Example 3, N-(1-carbamoyl-2-phenylsulfanylethyl)-2-pyridin-4-yl-1H-indole-5-carboxamide]
